This note sets out measurements from patent publication US8772480B2, “Inhibitors of PI3 kinase and/or mTOR” (priority 2009, dated 2014).

Read-outs that look alike come from different tables or passages of the source.

One assay concerns the target PI3Kα (Homo sapiens (Human), UniProt P42336). The settings on record: read-out: PI3Kα AlphaScreen ® Ki.
Assay [1] has as its target human mutant B-raf (HuBraf V600E) (Homo sapiens (Human), UniProt P15056, V600E). The settings on record: at 10 μM compound concentration; POC = 100 − percent inhibition.
Protocol: B-Raf Homogenous Time Resolved Fluorescence (HTRF) Kinase Assay
The final concentration of the kinase reaction buffer is 50 mM Tris-HCl pH 7.5, 10 mM MgCl2, 0.5% glucose, 0.5 mM DTT, 0.01% BSA. […] The detection reaction proceeds for one hour and is read on a RubyStar (BMG Labtech, Durham, N.C.) counter. IC50s for the test compounds are generated using Excel-XLfit software. For single concentration percent of control (POC;=100−percent inhibition) assays, compounds were assayed as above at a single test concentration of 10 M test compound.
The test system of assay [2] is phosphorylation of Akt at Serine 473 in U87 MG cells. Kind of assay: cells. The settings on record: Homo sapiens, U-87 MG, 2 h.
[3] abbreviates: read-out: U87Cell IC50, pAkt (Ser 473), U87 MG cells, two hours with compound.

Chain of human mutant B-raf (HuBraf V600E) (P15056 whole entry V600E): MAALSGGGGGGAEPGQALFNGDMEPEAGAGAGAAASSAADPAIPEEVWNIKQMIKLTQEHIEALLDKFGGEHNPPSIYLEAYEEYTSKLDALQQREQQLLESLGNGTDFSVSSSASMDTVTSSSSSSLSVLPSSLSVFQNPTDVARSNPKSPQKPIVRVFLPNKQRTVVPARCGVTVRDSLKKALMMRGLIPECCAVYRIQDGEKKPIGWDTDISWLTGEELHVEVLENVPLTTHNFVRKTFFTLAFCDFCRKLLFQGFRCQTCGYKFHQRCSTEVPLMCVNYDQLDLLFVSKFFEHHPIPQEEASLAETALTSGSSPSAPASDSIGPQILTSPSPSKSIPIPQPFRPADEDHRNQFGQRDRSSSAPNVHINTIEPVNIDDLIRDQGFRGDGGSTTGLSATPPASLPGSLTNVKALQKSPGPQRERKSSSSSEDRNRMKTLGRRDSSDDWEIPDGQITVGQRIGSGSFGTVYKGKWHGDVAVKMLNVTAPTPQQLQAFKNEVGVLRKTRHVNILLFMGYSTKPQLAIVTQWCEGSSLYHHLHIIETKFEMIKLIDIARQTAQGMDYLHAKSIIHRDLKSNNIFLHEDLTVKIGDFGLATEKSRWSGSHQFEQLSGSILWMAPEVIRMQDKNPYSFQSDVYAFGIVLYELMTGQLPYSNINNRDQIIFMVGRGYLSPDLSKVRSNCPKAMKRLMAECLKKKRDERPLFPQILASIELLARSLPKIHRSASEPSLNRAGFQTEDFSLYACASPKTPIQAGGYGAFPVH
Chain of PI3Kα (P42336 whole entry): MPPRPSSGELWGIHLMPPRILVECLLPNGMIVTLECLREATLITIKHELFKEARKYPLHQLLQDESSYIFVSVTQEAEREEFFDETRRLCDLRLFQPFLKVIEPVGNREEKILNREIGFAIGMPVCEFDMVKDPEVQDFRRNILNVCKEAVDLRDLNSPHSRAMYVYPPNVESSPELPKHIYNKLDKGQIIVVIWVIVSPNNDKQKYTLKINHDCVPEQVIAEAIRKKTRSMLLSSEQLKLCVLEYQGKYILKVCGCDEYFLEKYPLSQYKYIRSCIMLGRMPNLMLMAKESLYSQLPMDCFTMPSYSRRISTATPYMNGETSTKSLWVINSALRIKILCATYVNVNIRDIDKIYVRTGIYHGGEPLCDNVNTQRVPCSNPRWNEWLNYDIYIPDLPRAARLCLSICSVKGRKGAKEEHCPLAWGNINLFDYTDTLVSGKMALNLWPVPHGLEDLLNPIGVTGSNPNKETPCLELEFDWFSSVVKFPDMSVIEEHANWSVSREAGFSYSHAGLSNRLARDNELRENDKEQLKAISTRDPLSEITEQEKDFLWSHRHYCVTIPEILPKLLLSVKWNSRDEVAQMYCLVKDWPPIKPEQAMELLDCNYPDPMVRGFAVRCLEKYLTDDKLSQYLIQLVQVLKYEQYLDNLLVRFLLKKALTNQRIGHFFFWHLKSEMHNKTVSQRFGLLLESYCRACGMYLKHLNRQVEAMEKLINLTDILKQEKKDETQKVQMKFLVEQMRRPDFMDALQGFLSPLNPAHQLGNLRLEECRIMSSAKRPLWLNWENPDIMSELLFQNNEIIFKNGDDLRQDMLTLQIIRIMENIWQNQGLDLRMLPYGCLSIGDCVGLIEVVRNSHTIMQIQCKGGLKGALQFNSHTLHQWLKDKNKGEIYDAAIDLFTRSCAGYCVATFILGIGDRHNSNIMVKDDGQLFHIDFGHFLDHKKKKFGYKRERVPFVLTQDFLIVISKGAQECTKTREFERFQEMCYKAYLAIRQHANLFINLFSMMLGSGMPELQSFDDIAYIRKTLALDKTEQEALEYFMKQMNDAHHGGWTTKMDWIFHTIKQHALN
Chain of PI3Kα (P27986 whole entry partner): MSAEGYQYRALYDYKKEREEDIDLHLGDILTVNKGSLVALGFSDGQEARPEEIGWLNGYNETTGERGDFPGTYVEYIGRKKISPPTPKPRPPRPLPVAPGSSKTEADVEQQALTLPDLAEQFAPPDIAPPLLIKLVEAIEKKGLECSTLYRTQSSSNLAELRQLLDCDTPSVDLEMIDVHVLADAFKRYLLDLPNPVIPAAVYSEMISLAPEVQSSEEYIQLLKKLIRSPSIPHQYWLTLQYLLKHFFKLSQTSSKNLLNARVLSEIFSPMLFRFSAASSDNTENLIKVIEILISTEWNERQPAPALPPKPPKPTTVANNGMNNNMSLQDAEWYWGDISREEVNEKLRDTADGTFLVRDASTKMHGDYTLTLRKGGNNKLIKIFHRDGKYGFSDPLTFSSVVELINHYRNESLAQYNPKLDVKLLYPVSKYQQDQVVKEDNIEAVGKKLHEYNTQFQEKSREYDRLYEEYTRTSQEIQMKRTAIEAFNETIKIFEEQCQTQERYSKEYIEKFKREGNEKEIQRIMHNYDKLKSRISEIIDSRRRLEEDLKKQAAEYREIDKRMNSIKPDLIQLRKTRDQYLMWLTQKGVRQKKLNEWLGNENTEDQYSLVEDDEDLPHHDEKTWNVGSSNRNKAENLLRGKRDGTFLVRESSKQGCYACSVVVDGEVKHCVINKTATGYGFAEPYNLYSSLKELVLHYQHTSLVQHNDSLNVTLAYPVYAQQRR

What is called Ki is a dissociation constant, usually derived from enzyme kinetics or from competition with a known ligand. Take `Cc1nc(N)cc(-c2cccnc2Nc2cccc(O)c2)n1` [Example 26, 3-(3-(6-Amino-2-Methylpyrimidin-4-yl)Pyridin-2-Ylamino)Phenol]: the Ki at PI3Kα was found to be 24 nM. Besides, the “Mutant B-raf HTRF Assay POC Mean n = 2” value in assay [1] is 84% of Control (POC).
Consider `Nc1ccc(Nc2ncccc2-c2ncnc3[nH]cnc23)cn1` [Example 17, N3-(3-(9H-Purin-6-yl)Pyridin-2-yl)Pyridine-3,6-Diamine], for which the Ki at PI3Kα was > 1500 nM. In addition, the “Mutant B-raf HTRF Assay POC Mean n = 2” value in assay [1] is given as 38% of Control (POC).
As for `Cc1nc(-c2cccnc2Nc2cccc3[nH]ncc23)c2cn[nH]c2n1` [Example 55, N-(3-(6-methyl-1H-pyrazolo[3,4-d]pyrimidin-4-yl)pyridin-2-yl)-1H-indazol-4-amine], the Ki on PI3Kα amounted to 1410 nM. In addition, the “Mutant B-raf HTRF Assay POC Mean n = 2” value in assay [1] is 103% of Control (POC).
Turning to `Cc1nc(N)nc(-c2cccnc2Nc2cccc3[nH]ncc23)n1` [Example 24, N-(3-(4-Amino-6-Methyl-1,3,5-Triazin-2-yl)Pyridin-2-yl)-1H-Indazol-4-Amine], in assay [1], the “Mutant B-raf HTRF Assay POC Mean n = 2” value is 94% of Control (POC).
The same measure, in the same setting: under `COc1ccc(Nc2ncc(CN3CCN(S(C)(=O)=O)CC3)cc2-c2nc(C)nc(N)n2)cn1` [Example 35, 4-(2-(6-methoxypyridin-3-ylamino)-5-((4-(methylsulfonyl)piperazin-1-yl)methyl)pyridin-3-yl)-6-methyl-1,3,5-triazin-2-amine] stands 98% of Control (POC); under `COc1ccc(Nc2ncc(C)cc2-c2nc(C)nc(N)n2)cn1` [Example 31, 4-(2-(6-Methoxypyridin-3-Ylamino)-5-Methylpyridin-3-yl)-6-Methyl-1,3,5-Triazin-2-Amine], 97% of Control (POC).
One may read the IC50 as the concentration at which inhibition is half-maximal. For the compound `C=Cc1cnc(Nc2ccc(OC)nc2)c(-c2nc(C)nc3[nH]cnc23)c1` [Example 73, N-(6-methoxypyridin-3-yl)-3-(2-methyl-9H-purin-6-yl)-5-vinylpyridin-2-amine], the IC50 in assay [2] (setting [3]) was found to be 554 nM. Further, the “Mutant B-raf HTRF Assay POC Mean n = 2” value in assay [1] was 108% of Control (POC).
Turning to `Cc1nc(-c2cccnc2Nc2cccc3[nH]ccc23)c2nc[nH]c2n1` [Example 56, N-(3-(2-methyl-9H-purin-6-yl)pyridin-2-yl)-1H-indol-4-amine], the “Mutant B-raf HTRF Assay POC Mean n = 2” value in assay [1] is reported as 58% of Control (POC).
Same read-out and setting: then `COc1ccc(Nc2ncc(CN3CCOCC3)cc2-c2nc(C)nc(N)n2)cn1` [Example 44, 4-(2-(6-methoxypyridin-3-ylamino)-5-(morpholinomethyl)pyridin-3-yl)-6-methyl-1,3,5-triazin-2-amine], with 94% of Control (POC); and `COc1ccc(Nc2ncccc2-c2nc(C)nc(N)n2)cn1` [Example 25, 4-(2-(6-Methoxypyridin-3-Ylamino)Pyridin-3-yl)-6-Methyl-1,3,5-Triazin-2-Amine], with 95% of Control (POC).
As to `COc1cnc(Nc2ccc(OC)nc2)c(-c2nc(C)nc(N)n2)c1` [Example 33, 4-(5-Methoxy-2-(6-Methoxypyridin-3-Ylamino)Pyridin-3-yl)-6-Methyl-1,3,5-Triazin-2-Amine], the “Mutant B-raf HTRF Assay POC Mean n = 2” value in assay [1] is listed as 94% of Control (POC).
Consider `Cc1nc(-c2cc(C(F)(F)F)cnc2Nc2cccc3[nH]ncc23)c2nc[nH]c2n1` [Example 65, N-(3-(2-Methyl-9H-Purin-6-yl)-5-(Trifluoromethyl)Pyridine-2-yl)-1H-Indazol-4-Amine], for which the Ki on PI3Kα came to 119 nM. For the same compound, the “Mutant B-raf HTRF Assay POC Mean n = 2” value in assay [1] is on record as 85% of Control (POC).
Take `COc1ccc(Nc2ncc(CN3CCNCC3)cc2-c2nc(C)nc(N)n2)cn1` [Example 41, 4-(2-(6-methoxypyridin-3-ylamino)-5-(piperazin-1-ylmethyl)pyridin-3-yl)-6-methyl-1,3,5-triazin-2-amine]: in assay [1], the “Mutant B-raf HTRF Assay POC Mean n = 2” value is listed as 96% of Control (POC).
With `Cc1nc(N)cc(-c2cnccc2Nc2cccc3[nH]ccc23)n1` [Example 109, N-(3-(6-amino-2-methylpyrimidin-4-yl)pyridin-4-yl)-1H-indol-4-amine], the IC50 in assay [2] (setting [3]) came out at 821 nM. Moreover, the “Mutant B-raf HTRF Assay POC Mean n = 2” value in assay [1] was 35% of Control (POC).
Take `CC(=O)Nc1ccc(Nc2ncccc2-c2ncnc3[nH]cnc23)cn1` [Example 16, N-(5-(3-(9H-Purin-6-yl)Pyridin-2-Ylamino)Pyridin-2-yl)Acetamide]: at PI3Kα, the Ki is > 1500 nM. Also, in assay [1], the “Mutant B-raf HTRF Assay POC Mean n = 2” value is 42% of Control (POC).
For the compound `COc1ccc(Nc2nc(N)ncc2-c2nc(C)nc(N)n2)cn1` [Example 118, 5-(4-amino-6-methyl-1,3,5-triazin-2-yl)-N4-(6-methoxypyridin-3-yl)pyrimidine-2,4-diamine], the Ki on PI3Kα was 113 nM. Moreover, the IC50 in assay [2] (setting [3]) was 172 nM.
Consider `Cc1nc(N)nc(-c2cc(C(C)N3CCOCC3)cnc2Nc2cnc(Cl)c(NS(=O)(=O)N(C)C)c2)n1` (stereo not drawn) [Example 370, N-(5-(3-(4-Amino-6-Methyl-1,3,5-Triazin-2-yl)-5-(1-Morpholinoethyl)Pyridin-2-Ylamino)-2-Chloropyridin-3-yl)-N,N-Dimethylaminosulfamide], for which the Ki at PI3Kα amounted to 10 nM. In assay [2] (setting [3]), the IC50 worked out at 3 nM.
On the same counts, the results for `COc1ncc(Nc2ncccc2-c2nc(C)nc(N)n2)cc1Cl` [Example 173, 4-(2-(5-Chloro-6-Methoxypyridin-3-Ylamino)Pyridin-3-yl)-6-Methyl-1,3,5-Triazin-2-Amine] are 60 nM and 353 nM.
Taken in the same sequence, the figures for `COc1ccc(Nc2ncc(CN3CCN(S(C)(=O)=O)CC3)cc2-c2ncnc(C)n2)cn1` [Example 34, N-(6-methoxypyridin-3-yl)-3-(4-methyl-1,3,5-triazin-2-yl)-5-((4-(methylsulfonyl)piperazin-1-yl)methyl)pyridin-2-amine] were 1580 nM and > 10000 nM.
Taken in the same sequence, the figures for `COc1ncc(Nc2ncc(C(C)c3ccc(S(C)(=O)=O)cc3)cc2-c2nc(C)nc(N)n2)cc1F` (stereo not drawn) [Example 150, 4-(2-(5-Fluoro-6-Methoxypyridin-3-Ylamino)-5-(1-(4-(Methylsulfonyl)Phenyl)Ethyl)Pyridin-3-yl)-6-Methyl-1,3,5-Triazin-2-Amine] were 1 nM and 11 nM.
In the case of `COc1ccc(Nc2ncccc2-c2nc(C)nc(N)n2)cc1F` [Example 166, 4-(2-(3-Fluoro-4-Methoxyphenylamino)Pyridin-3-yl)-6-Methyl-1,3,5-Triazin-2-Amine], the Ki at PI3Kα is 177 nM. The IC50 in assay [2] (setting [3]) turned out to be 902 nM.
Taken in the same sequence, the figures for `Cc1nc(N)nc(-c2cc(CN3CCN(S(C)(=O)=O)CC3)cnc2Nc2cn[nH]c2)n1` [Example 243, 4-(2-(1H-Pyrazol-4-Ylamino)-5-((4-(Methylsulfonyl)Piperazin-1-yl)Methyl)Pyridin-3-yl)-6-Methyl-1,3,5-Triazin-2-Amine] were 163 nM and 1520 nM.
Taken in the same sequence, the figures for `COc1ccc(Nc2ncc(C(N)c3ccc(S(=O)(=O)N(C)C)cc3)cc2-c2nc(C)nc(N)n2)cn1` (stereo not drawn) [Example 237, 4-(Amino(5-(4-Amino-6-Methyl-1,3,5-Triazin-2-yl)-6-(6-Methoxypyridin-3-Ylamino)Pyridin-3-yl)Methyl)-N,N-Dimethylbenzenesulfonamide] were 18 nM and 46 nM.
On the same counts, the results for `Cc1nc(N)nc(-c2cc(CN3CCNCC3)cnc2Nc2ccc3[nH]cnc3c2)n1` [Example 261, N-(3-(4-Amino-6-Methyl-1,3,5-Triazin-2-yl)-5-(Piperazin-1-Ylmethyl)Pyridin-2-yl)-1H-Benzo[D]Imidazol-5-Amine] are 69 nM and 2720 nM.
Turning to `COc1ncc(Nc2ncc(Cc3ccc(S(C)(=O)=O)cc3)cc2-c2nc(C)nc(N)n2)cc1F` [Example 142, 4-(2-(5-fluoro-6-methoxypyridin-3-ylamino)-5-(4-(methylsulfonyl)benzyl)pyridin-3-yl)-6-methyl-1,3,5-triazin-2-amine], at PI3Kα, the Ki worked out at 2 nM. Further, in assay [2] (setting [3]), the IC50 worked out at 6 nM.
On the same counts, the results for `COc1ccc(Nc2ncc(CN3CCSCC3)cc2-c2nc(C)nc(N)n2)cn1` [Example 201, 4-(2-(6-Methoxypyridin-3-Ylamino)-5-(Thiomorpholinomethyl)Pyridin-3-yl)-6-Methyl-1,3,5-Triazin-2-Amine] are 94 nM and 66 nM.
Regarding `Cc1nc(N)nc(-c2cc(CN3CCN(S(C)(=O)=O)CC3)cnc2Nc2cccc3[nH]ncc23)n1` [Example 36, N-(3-(4-amino-6-methyl-1,3,5-triazin-2-yl)-5-((4-(methylsulfonyl)piperazin-1-yl)methyl)pyridin-2-yl)-1H-indazol-4-amine], at PI3Kα, the Ki was 4 nM. In addition, the IC50 in assay [2] (setting [3]) was found to be 22 nM.
On the same counts, the results for `COCCOc1ccc(NC(=O)Nc2ccc(Nc3ncc(Cl)cc3-c3nc(C)nc(N)n3)cn2)cc1` [Example 195, 1-(5-(3-(4-Amino-6-Methyl-1,3,5-Triazin-2-yl)-5-Chloropyridin-2-Ylamino)Pyridin-2-yl)-3-(4-(2-Methoxyethoxy)Phenyl)Urea] are 16 nM and > 10000 nM.
As to `COc1ccc(Nc2ncccc2-c2nc(C)nc(N)n2)cc1OC` [Example 170, 4-(2-(3,4-Dimethoxyphenylamino)Pyridin-3-yl)-6-Methyl-1,3,5-Triazin-2-Amine], on PI3Kα, the Ki was found to be 560 nM. In addition, the IC50 in assay [2] (setting [3]) worked out at 596 nM.
Turning to `COc1ccc(Nc2ncc(C3=CCNCC3)cc2-c2nc(C)nc(N)n2)cn1` [Example 249, 4-(2-(6-Methoxypyridin-3-Ylamino)-5-(1,2,3,6-Tetrahydropyridin-4-yl)Pyridin-3-yl)-6-Methyl-1,3,5-Triazin-2-Amine], at PI3Kα, the Ki came out at 21 nM. In assay [2] (read-out: U87Cell IC50), the concentration for half-maximal inhibition (IC50) was 88 nM.
As to `COc1cncc(Nc2ncccc2-c2nc(C)nc3[nH]cnc23)c1` [Example 183, N-(5-Methoxypyridin-3-yl)-3-(2-Methyl-9H-Purin-6-yl)Pyridin-2-Amine], the Ki on PI3Kα is 26 nM. The IC50 in assay [2] (setting [3]) was 446 nM.
